PMC3090393, “New Noncovalent Inhibitors of Penicillin-Binding Proteins from Penicillin-Resistant Bacteria” (PLoS ONE, 2011)
Converted amounts (≈) assume the structure as drawn.

The compounds below were run against PBP5fm (Enterococcus faecium, UniProt Q47759) (assay: PBP5fm enzymatic inhibition assay (fluorescein-labeled ampicillin, residual penicillin binding activity)). Details: 4 h; residual activity of the enzyme at 1 mM inhibitor; 0.01% Triton X-100; read-out: PBP5fm RA [%].
PBP5fm, sequence (Q47759 entry or part of it): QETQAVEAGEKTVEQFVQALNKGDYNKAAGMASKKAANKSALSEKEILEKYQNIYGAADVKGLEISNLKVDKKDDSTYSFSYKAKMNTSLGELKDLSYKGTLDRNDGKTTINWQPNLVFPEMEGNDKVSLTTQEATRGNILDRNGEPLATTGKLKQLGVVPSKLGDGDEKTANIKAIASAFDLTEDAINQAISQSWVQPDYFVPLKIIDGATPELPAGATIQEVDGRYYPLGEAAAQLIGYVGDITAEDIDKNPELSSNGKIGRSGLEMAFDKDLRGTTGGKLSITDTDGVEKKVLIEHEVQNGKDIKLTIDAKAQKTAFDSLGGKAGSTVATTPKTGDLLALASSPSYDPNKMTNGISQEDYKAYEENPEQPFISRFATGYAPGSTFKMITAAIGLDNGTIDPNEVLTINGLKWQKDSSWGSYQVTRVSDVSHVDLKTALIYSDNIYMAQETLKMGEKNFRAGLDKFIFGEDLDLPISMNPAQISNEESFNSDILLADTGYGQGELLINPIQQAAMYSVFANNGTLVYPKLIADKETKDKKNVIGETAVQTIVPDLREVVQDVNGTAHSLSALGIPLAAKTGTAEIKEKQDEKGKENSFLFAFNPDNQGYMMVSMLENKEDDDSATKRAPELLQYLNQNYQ
Assay type: biochemical, Enterococcus faecium D63r
Protocol: (§1) PBP2a from Staphylococcus aureus ATCC 43300 and PBP5fm from Enterococcus faecium D63r were overproduced and purified as described previously, [18].
(§2) Each of the purified PBPs (2.5 µM) were first incubated with 1 mM potential inhibitor in 100 mM phosphate buffer, 0.01% Triton X-100[19], pH 7, for 4 h at 30°C. Then, 25 µM fluorescein-labeled ampicillin[20] was added to detect the residual penicillin binding activity (RA). The samples were further incubated for 30 min at 37°C in a total volume of 20 µL. Denaturation buffer was added (0.1 M Tris/HCl, pH 6.8, containing 25% glycerol, 2% SDS, 20% β-mercaptoethanol and 0.02% bromophenol blue) and the samples were heated to 100°C for 1 min. The samples were then loaded onto a 10% SDS-acrilamide gel (10×7 cm) and electrophoresis was performed for 45 min at 180 V (12 mA). Detection and quantification of the RAs were with Molecular Image FX equipment and Quantity One software (BioRad, Hercules, CA, USA). Three independent experiments were carried out for each inhibitor.
`CCCOc1cccc(C(=O)Nc2ccc(Br)cc2C(=O)O)c1` [compound 9, 5-Bromo-2-(3-propoxybenzamido)benzoic acid] showed an activity at 1000 µM of 72%.

Each compound was assayed on Streptococcus pneumoniae D39 (assay: In-vitro antibacterial activity (MIC, broth microdilution)). Details: not given.
Assay type: cell-based
Protocol: (§3) Determination of the antibacterial activities was carried out on microtiter plates, in 200 µL (final volume) of Müeller-Hinton Broth (MHB), following EUCAST (European Committee on Antimicrobial Susceptibility testing)/CLSI (Clinical and Laboratory Standard Institute) recommended procedures, [25]. The compounds were solubilized in MHB, just before use. Inocula were prepared for each strain by resuspending isolated colonies from 18 h cultured plates. Equivalents of 0.5 Mac Farland turbidity standards (approximately 1×10^8 CFU mL^−1) were prepared in saline solution ([…]) and then diluted 200-fold in MBH.
Work on `CCCOc1cccc(C(=O)Nc2ccc(Br)cc2C(=O)O)c1` [compound 9, 5-Bromo-2-(3-propoxybenzamido)benzoic acid] yielded an MIC of 1 mg/L (≈ 2.64 µM).

What follows are compounds tested on Staphylococcus aureus ATCC 43300 (MRSA) in the same assay as above. Details: not given.
Assay type: cell-based
Protocol: as §3
In the case of `CCCOc1cccc(C(=O)Nc2ccc(Br)cc2C(=O)O)c1` [compound 9, 5-Bromo-2-(3-propoxybenzamido)benzoic acid], the MIC is reported as 32 mg/L (≈ 84.6 µM).

The compounds below were run on Pseudomonas aeruginosa ATCC 27853 in the same assay as above. Details: ATCC27853.
Assay type: cell-based
Protocol: as §3
`CCCOc1cccc(C(=O)Nc2ccc(Br)cc2C(=O)O)c1` [compound 9, 5-Bromo-2-(3-propoxybenzamido)benzoic acid] was tested, and the MIC was greater than 512 mg/L.

Each compound was assayed on Enterococcus faecalis ATCC 29212 in the same assay as above. Details: ATCC29212.
Assay type: cell-based
Protocol: as §3
With `CCCOc1cccc(C(=O)Nc2ccc(Br)cc2C(=O)O)c1` [compound 9, 5-Bromo-2-(3-propoxybenzamido)benzoic acid] the MIC was 64 mg/L (≈ 169 µM).

The compounds below were run on Staphylococcus epidermidis ATCC 12228 in the same assay as above. Details: ATCC12228.
Assay type: cell-based
Protocol: as §3
`CCCOc1cccc(C(=O)Nc2ccc(Br)cc2C(=O)O)c1` [compound 9, 5-Bromo-2-(3-propoxybenzamido)benzoic acid] was tested, and the MIC was 8 mg/L (≈ 21.2 µM).

These compounds were tested on Citrobacter freundii ATCC 8090 in the same assay as above. Details: ATCC8090.
Assay type: cell-based
Protocol: as §3
With `CCCOc1cccc(C(=O)Nc2ccc(Br)cc2C(=O)O)c1` [compound 9, 5-Bromo-2-(3-propoxybenzamido)benzoic acid] the MIC was greater than 512 mg/L.

The compounds below were run on Streptococcus pneumoniae ATCC 49619 in the same assay as above. Details: ATCC49619.
Assay type: cell-based
Protocol: as §3
With `CCCOc1cccc(C(=O)Nc2ccc(Br)cc2C(=O)O)c1` [compound 9, 5-Bromo-2-(3-propoxybenzamido)benzoic acid] the MIC was 1 mg/L (≈ 2.64 µM).

The compounds below were run on Bacillus subtilis ATCC 6633 in the same assay as above. Details: ATCC6633.
Assay type: cell-based
Protocol: as §3
In the case of `CCCOc1cccc(C(=O)Nc2ccc(Br)cc2C(=O)O)c1` [compound 9, 5-Bromo-2-(3-propoxybenzamido)benzoic acid], the MIC is reported as 32 mg/L (≈ 84.6 µM).

These compounds were tested on Listeria monocytogenes ATCC 14780 in the same assay as above. Details: ATCC14780.
Assay type: cell-based
Protocol: as §3
Compound `CCCOc1cccc(C(=O)Nc2ccc(Br)cc2C(=O)O)c1` [compound 9, 5-Bromo-2-(3-propoxybenzamido)benzoic acid] has an MIC of 16 mg/L (≈ 42.3 µM).

What follows are compounds tested on Streptococcus pneumoniae ATCC 33400 in the same assay as above. Details: ATCC33400.
Assay type: cell-based
Protocol: as §3
`CCCOc1cccc(C(=O)Nc2ccc(Br)cc2C(=O)O)c1` [compound 9, 5-Bromo-2-(3-propoxybenzamido)benzoic acid] showed an MIC of 1 mg/L (≈ 2.64 µM).

What follows are compounds tested on Enterococcus hirae ATCC 8790 in the same assay as above. Details: ATCC8790.
Assay type: cell-based
Protocol: as §3
`CCCOc1cccc(C(=O)Nc2ccc(Br)cc2C(=O)O)c1` [compound 9, 5-Bromo-2-(3-propoxybenzamido)benzoic acid] showed an MIC of 16 mg/L (≈ 42.3 µM).

What follows are compounds tested on Listeria innocua ATCC 33090 in the same assay as above. Details: ATCC33090.
Assay type: cell-based
Protocol: as §3
`CCCOc1cccc(C(=O)Nc2ccc(Br)cc2C(=O)O)c1` [compound 9, 5-Bromo-2-(3-propoxybenzamido)benzoic acid] was tested, and the MIC was 16 mg/L (≈ 42.3 µM).

These compounds were tested on Enterococcus faecalis ATCC 7937 in the same assay as above. Details: ATCC7937.
Assay type: cell-based
Protocol: as §3
`CCCOc1cccc(C(=O)Nc2ccc(Br)cc2C(=O)O)c1` [compound 9, 5-Bromo-2-(3-propoxybenzamido)benzoic acid] was tested, and the MIC was 64 mg/L (≈ 169 µM).

What follows are compounds tested on Escherichia coli ATCC 8739 in the same assay as above. Details: ATCC8739.
Assay type: cell-based
Protocol: as §3
`CCCOc1cccc(C(=O)Nc2ccc(Br)cc2C(=O)O)c1` [compound 9, 5-Bromo-2-(3-propoxybenzamido)benzoic acid] gave an MIC greater than 512 mg/L.

Each compound was assayed on Enterococcus faecium ATCC 19434 in the same assay as above. Details: ATCC19434.
Assay type: cell-based
Protocol: as §3
`CCCOc1cccc(C(=O)Nc2ccc(Br)cc2C(=O)O)c1` [compound 9, 5-Bromo-2-(3-propoxybenzamido)benzoic acid] gave an MIC of 16 mg/L (≈ 42.3 µM).

What follows are compounds tested on Staphylococcus aureus mp 1 (inducible MRSA) in the same assay as above. Details: not given.
Assay type: cell-based
Protocol: as §3
`CCCOc1cccc(C(=O)Nc2ccc(Br)cc2C(=O)O)c1` [compound 9, 5-Bromo-2-(3-propoxybenzamido)benzoic acid] showed an MIC of 32 mg/L (≈ 84.6 µM).

The compounds below were run on Micrococcus luteus ATCC 9341 in the same assay as above. Details: ATCC9341.
Assay type: cell-based
Protocol: as §3
Compound `CCCOc1cccc(C(=O)Nc2ccc(Br)cc2C(=O)O)c1` [compound 9, 5-Bromo-2-(3-propoxybenzamido)benzoic acid] has an MIC of 16 mg/L (≈ 42.3 µM).

These compounds were tested on Proteus mirabilis ATCC 29936 in the same assay as above. Details: ATCC29936.
Assay type: cell-based
Protocol: as §3
`CCCOc1cccc(C(=O)Nc2ccc(Br)cc2C(=O)O)c1` [compound 9, 5-Bromo-2-(3-propoxybenzamido)benzoic acid] gave an MIC greater than 512 mg/L.

These compounds were tested on Klebsiella pneumoniae ATCC 13883 in the same assay as above. Details: ATCC13883.
Assay type: cell-based
Protocol: as §3
`CCCOc1cccc(C(=O)Nc2ccc(Br)cc2C(=O)O)c1` [compound 9, 5-Bromo-2-(3-propoxybenzamido)benzoic acid] showed an MIC greater than 512 mg/L.

The compounds below were run on Staphylococcus aureus ATCC 25923 in the same assay as above. Details: ATCC25923.
Assay type: cell-based
Protocol: as §3
Compound `CCCOc1cccc(C(=O)Nc2ccc(Br)cc2C(=O)O)c1` [compound 9, 5-Bromo-2-(3-propoxybenzamido)benzoic acid] has an MIC of 32 mg/L (≈ 84.6 µM).

The compounds below were run against T1, PBP2a (Staphylococcus aureus, UniProt P07944) (assay: PBP2a enzymatic inhibition assay (fluorescein-labeled ampicillin, residual penicillin binding activity)). Details: 4 h; residual activity of the enzyme at 1 mM inhibitor; 0.01% Triton X-100; mean of three experiments; read-out: PBP2a RA [%].
T1 construct: made in house
T1 sequence (P07944 whole entry): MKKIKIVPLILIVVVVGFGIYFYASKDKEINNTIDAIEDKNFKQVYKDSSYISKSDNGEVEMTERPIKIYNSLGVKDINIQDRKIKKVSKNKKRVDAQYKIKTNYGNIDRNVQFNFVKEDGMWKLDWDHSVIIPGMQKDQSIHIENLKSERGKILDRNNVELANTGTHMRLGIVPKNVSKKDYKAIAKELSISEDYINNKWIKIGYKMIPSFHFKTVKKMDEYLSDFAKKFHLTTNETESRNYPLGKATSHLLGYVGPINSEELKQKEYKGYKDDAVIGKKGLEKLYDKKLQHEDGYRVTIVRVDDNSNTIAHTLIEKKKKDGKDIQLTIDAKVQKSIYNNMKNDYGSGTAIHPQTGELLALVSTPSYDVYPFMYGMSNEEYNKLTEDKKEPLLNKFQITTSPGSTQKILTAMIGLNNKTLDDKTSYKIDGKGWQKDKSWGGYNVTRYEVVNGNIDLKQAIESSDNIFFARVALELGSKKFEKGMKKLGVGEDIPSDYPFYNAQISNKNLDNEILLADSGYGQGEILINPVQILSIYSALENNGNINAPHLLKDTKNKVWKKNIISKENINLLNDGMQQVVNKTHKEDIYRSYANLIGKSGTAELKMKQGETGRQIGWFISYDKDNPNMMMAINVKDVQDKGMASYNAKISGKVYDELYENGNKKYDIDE
Assay type: biochemical, Staphylococcus aureus ATCC 43300
Protocol: as §1, §2
`CCCOc1cccc(C(=O)Nc2ccc(Br)cc2C(=O)O)c1` [compound 9, 5-Bromo-2-(3-propoxybenzamido)benzoic acid] gave a remaining activity at 1000 µM of 0%.

Same assay, conditions: in the presence of 0.01% Triton X-100
`CCCOc1cccc(C(=O)Nc2ccc(Br)cc2C(=O)O)c1` [compound 9, 5-Bromo-2-(3-propoxybenzamido)benzoic acid] showed an IC50 of 230 µM.

The compounds below were run against PBP2x 5204 (Streptococcus pneumoniae, UniProt P59676) (assay: PBP2x 5204 enzymatic inhibition assay (S2d hydrolysis, DTNB)). Details: read-out: PBP2x5204 IC50; in the presence of 0.01% Triton X-100.
PBP2x 5204, sequence (P59676 49-750): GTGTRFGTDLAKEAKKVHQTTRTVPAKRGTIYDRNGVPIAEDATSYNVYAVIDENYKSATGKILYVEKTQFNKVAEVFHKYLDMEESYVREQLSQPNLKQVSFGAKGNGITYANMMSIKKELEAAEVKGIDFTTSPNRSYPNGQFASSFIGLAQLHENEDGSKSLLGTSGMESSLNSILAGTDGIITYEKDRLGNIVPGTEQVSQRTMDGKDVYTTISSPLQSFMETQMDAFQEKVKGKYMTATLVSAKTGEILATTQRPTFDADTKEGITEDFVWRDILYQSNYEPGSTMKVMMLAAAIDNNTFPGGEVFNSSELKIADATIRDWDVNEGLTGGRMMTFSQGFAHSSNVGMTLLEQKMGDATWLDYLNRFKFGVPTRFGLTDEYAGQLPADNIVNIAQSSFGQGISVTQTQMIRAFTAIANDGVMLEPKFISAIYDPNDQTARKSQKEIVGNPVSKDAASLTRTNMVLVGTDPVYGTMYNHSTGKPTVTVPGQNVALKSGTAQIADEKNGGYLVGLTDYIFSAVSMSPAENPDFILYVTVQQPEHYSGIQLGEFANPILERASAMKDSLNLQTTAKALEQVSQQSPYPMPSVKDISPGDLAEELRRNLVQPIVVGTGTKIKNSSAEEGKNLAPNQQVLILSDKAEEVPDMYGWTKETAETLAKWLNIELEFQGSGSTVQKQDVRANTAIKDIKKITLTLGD
Assay type: biochemical, Streptococcus pneumoniae strain 5204
Protocol: PBP2x-5204 from Streptococcus pneumonia and N-benzoyl-D-alanyl-thioglycolate S2d[21], [22] were prepared as previously described. All assays with PBP2x 5204 were carried out in 96-well microtiter plates (Brand, Wertheim, Germany). PBP2x 5204 (0.6 µM) was incubated in the presence of the potential inhibitors in 10 mM sodium phosphate buffer (pH 7.0) containing 70 mM D-alanine and 0.01 mg/mL BSA, for 4 h at 25°C. This preincubation was used to also detect slow binding inhibitors. After the preincubation, the RA of PBP2x 5204 was determined. The initial rate of hydrolysis of 1 mM S2d in the presence of 1 mM DTNB was determined by monitoring the increase in absorbance at 412 nm (DTNB: ε[Δ ε] = […]) using a microplate absorbance reader (Power Wave X, Biotek Instruments, Winooski, U.S.A.). The rate of spontaneous hydrolysis of S2d in the presence of the potential inhibitors was also determined in the absence of PBP2x 5204. All of the assays were carried out in triplicate. The determination of the RA of PBP2x 5204 in the absence of inhibitors was carried out six times on each plate. A test compound was considered as an inhibitor if the RA was <80%. In this case, to reveal false positives, the assays were also carried out under the same conditions in the presence of 0.01% Triton X-100. As described in the literature, promiscuous inhibitors (false positives) are slow binding, noncompetitive inhibitors. To avoid detailed kinetic investigations, it is possible to identify such compounds by carrying out the assays in the presence of Triton X-100[14], [19]. Promiscuous inhibitors show no inhibition in the presence of Triton X-100. The IC50 values in the presence of Triton X-100 were determined if the RAs were <50%. (RA: ∼50%, IC50∼c, c: concentration of compound in the assay; RA >50%, IC50 > c). The RA was measured over a range of concentrations, from which the IC50 values were determined by non-linear regression analysis, using Sigma Plot (Systat software) and fitting the data to the equation y = y0+(a×b)/(b+x)[23].
`CCCOc1cccc(C(=O)Nc2ccc(Br)cc2C(=O)O)c1` [compound 9, 5-Bromo-2-(3-propoxybenzamido)benzoic acid] was tested, and the IC50 was 155 µM.

Same assay, conditions: residual activity of the enzyme at 500 µM inhibitor; 240 min
For `CCCOc1cccc(C(=O)Nc2ccc(Br)cc2C(=O)O)c1` [compound 9, 5-Bromo-2-(3-propoxybenzamido)benzoic acid], the “PBP2x5204 RA [%]” value was 8%.
